From ChEMBL document CHEMBL1201862, “PubChem BioAssay data set” (2004)
Activity calls are given as the source filed them.

Columns and labels:
[1] = biological target: T1, Calpain-2 catalytic subunit (Sus scrofa, UniProt P43367); assay: m-calpain protease blockers, concentration series – biochemical, fluorogenic peptide substrate, dose response (AID 1420); type: functional
T1 sequence (P43367 whole entry): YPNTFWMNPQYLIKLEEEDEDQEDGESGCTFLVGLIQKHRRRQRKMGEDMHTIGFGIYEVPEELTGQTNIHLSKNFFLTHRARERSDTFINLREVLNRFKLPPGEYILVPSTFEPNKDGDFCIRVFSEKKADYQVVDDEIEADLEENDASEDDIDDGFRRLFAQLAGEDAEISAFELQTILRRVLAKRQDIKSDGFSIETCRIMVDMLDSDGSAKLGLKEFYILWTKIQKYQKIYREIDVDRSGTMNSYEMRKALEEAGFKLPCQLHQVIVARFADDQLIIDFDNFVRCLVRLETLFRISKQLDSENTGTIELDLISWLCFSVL

Cytochrome P450 3A4 = Cytochrome P450 3A4 (Homo sapiens, UniProt P08684); conditions: Potency;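 note: confirmatory qHTS run detecting inhibitors and substrates of CYP3A4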
Chain of Cytochrome P450 3A4 (P08684 whole entry): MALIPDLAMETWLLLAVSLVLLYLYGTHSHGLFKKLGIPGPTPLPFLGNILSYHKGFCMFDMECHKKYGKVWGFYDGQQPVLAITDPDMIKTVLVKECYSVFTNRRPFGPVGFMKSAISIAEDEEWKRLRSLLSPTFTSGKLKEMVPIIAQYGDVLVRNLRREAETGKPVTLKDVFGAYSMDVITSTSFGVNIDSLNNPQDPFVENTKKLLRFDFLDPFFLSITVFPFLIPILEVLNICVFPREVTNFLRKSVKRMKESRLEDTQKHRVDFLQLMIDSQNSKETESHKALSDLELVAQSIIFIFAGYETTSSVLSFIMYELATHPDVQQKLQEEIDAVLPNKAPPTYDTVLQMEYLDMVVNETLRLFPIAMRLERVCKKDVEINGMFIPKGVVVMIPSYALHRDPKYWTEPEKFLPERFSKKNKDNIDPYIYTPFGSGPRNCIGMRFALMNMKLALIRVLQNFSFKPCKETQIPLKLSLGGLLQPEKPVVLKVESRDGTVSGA

[2] = biological target: Induced myeloid leukemia cell differentiation protein Mcl-1 (Homo sapiens, UniProt Q07820); type: functional
Chain of Induced myeloid leukemia cell differentiation protein Mcl-1 (Q07820 whole entry): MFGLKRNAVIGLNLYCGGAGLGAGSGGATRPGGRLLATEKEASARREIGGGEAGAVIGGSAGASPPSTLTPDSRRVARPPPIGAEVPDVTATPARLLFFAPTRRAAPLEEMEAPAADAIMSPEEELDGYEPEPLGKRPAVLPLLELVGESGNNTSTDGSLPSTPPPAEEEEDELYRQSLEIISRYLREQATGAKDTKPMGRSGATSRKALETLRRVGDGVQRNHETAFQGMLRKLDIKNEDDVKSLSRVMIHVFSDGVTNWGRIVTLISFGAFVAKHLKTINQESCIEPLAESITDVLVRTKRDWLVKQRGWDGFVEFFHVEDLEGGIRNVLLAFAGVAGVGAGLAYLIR

Prothrombin = Prothrombin (Homo sapiens, UniProt P00734); assay: Thrombin 1536 HTS Dose Response Confirmation. [Related pubchem assays: 1046 (Thrombin 1536 HTS; hits were confirmed in this assay)]; type: functional
Cytochrome P450 2C9 = Cytochrome P450 2C9 (Homo sapiens, UniProt P11712)
Chain of Cytochrome P450 2C9 (P11712 whole entry): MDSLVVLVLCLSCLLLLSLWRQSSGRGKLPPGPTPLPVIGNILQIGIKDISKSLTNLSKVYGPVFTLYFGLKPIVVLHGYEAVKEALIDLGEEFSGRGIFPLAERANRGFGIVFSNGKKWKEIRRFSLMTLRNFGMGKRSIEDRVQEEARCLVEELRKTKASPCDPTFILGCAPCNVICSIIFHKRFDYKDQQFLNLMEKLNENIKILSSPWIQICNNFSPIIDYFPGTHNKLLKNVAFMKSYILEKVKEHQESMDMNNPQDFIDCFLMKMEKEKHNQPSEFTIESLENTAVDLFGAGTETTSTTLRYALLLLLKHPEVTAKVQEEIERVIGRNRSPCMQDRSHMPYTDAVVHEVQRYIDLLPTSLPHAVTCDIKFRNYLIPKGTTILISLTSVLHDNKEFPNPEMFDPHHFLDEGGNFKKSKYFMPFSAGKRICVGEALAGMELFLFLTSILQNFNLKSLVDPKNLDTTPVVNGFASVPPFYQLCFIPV

[3] = biological target: T2, Sentrin-specific protease 6 (Homo sapiens, UniProt Q9GZR1); type: functional;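 note: Luminescence-based dose-response confirmatory assay of SENP6 inhibition, following up an ultra-high-throughput screen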
T2 sequence (Q9GZR1 whole entry): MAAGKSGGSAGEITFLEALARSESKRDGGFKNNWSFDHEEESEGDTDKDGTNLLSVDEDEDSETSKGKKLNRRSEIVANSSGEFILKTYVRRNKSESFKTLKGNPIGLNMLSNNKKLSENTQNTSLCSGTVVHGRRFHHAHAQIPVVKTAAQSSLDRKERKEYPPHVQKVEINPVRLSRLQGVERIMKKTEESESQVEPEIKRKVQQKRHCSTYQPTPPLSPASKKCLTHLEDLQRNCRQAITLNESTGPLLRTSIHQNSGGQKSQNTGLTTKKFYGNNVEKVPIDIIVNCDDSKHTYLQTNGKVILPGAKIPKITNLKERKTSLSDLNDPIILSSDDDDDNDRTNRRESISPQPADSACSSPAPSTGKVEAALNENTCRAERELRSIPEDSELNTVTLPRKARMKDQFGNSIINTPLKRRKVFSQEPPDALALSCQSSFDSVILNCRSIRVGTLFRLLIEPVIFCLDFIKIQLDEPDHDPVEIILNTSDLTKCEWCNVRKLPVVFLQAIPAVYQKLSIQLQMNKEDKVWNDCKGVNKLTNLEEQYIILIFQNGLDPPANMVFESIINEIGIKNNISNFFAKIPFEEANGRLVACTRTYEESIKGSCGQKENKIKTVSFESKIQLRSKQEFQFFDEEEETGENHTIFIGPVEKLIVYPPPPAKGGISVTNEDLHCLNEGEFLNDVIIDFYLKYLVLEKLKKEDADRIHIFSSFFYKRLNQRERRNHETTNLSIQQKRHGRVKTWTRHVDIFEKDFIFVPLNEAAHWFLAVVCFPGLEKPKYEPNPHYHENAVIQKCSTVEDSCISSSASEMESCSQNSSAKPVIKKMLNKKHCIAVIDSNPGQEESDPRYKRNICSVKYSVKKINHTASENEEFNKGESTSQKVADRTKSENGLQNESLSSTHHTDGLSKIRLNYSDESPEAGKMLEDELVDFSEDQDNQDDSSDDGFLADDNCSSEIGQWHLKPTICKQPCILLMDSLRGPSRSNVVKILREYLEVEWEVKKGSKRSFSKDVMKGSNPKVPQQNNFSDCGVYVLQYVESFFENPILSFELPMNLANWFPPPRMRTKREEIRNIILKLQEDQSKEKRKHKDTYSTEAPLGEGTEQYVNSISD

[4] = viability of HCT116 lacking mutant beta-catenin – cell-based, human colon tumor, dose response (AID 1045); type: functional;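 note: HCT116 colon tumor cells with beta catenin knocked out; cells exposed to compound for 60 hours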
Caspase-3 = biological target: T3, Caspase-3 (Homo sapiens, UniProt P42574); type: functional;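 note: Dose-response selectivity test against caspase-3 for candidate inhibitors of sentrin-specific proteases (SENPs)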
T3 sequence (P42574 whole entry): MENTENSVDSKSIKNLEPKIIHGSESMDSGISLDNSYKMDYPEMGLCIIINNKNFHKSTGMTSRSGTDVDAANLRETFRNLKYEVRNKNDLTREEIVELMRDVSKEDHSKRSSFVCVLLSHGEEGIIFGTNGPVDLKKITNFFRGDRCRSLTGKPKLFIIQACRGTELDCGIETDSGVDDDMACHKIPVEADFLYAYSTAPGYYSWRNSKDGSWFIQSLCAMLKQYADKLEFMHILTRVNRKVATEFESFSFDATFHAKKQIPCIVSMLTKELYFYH

[5] = biological target: T4, Sentrin-specific protease 8 (Homo sapiens, UniProt Q96LD8); type: functional;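 note: luminescence read-out of SENP8 inhibition, dose-response confirmation following an ultra-high-throughput screen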
T4 sequence (Q96LD8 whole entry): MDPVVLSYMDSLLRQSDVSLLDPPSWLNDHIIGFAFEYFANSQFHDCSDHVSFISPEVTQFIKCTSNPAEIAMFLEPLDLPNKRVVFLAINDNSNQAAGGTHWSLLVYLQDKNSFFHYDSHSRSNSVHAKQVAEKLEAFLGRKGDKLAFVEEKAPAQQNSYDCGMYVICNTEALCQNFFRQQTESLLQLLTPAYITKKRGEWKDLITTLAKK

[6] = biological target: T5, Sentrin-specific protease 7 (Homo sapiens, UniProt Q9BQF6); type: functional;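 note: Luminescence-based dose-response confirmation of ultra-high-throughput screening hits, measuring inhibition of SENP7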
T5 sequence (Q9BQF6 whole entry): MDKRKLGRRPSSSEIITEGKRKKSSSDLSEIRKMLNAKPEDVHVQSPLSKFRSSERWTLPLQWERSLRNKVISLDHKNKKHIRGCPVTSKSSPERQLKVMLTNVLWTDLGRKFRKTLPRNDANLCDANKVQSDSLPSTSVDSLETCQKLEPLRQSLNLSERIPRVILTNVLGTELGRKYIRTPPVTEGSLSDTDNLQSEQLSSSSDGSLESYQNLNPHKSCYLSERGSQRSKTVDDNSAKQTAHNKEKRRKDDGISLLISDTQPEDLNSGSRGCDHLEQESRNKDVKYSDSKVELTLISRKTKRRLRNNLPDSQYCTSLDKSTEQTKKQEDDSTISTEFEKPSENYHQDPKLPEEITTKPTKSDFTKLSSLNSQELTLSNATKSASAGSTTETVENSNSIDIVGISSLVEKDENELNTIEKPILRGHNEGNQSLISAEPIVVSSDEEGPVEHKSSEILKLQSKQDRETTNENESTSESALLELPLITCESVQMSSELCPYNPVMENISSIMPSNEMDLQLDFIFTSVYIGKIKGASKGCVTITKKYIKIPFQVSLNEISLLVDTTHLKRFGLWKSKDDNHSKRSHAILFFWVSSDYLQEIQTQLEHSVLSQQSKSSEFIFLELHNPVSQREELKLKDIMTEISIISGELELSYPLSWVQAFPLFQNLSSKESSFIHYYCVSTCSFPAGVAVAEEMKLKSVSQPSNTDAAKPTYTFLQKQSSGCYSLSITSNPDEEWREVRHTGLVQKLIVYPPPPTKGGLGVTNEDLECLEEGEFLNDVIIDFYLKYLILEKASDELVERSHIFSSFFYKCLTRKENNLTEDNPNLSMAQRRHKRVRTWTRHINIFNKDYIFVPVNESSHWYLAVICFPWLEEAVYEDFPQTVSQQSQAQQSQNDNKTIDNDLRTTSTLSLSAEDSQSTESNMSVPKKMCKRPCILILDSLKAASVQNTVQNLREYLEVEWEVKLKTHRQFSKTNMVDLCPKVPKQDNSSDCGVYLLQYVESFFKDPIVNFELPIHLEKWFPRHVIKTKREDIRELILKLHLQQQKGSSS

[7] = viability of PTEN-deleted HCT116 cells – cell-based, HCT116 PTEN knockout, dose response (AID 1047); type: functional;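 note: HCT116 colon tumor cells with PTEN knocked out; cells exposed to compound for 60 hours before readout; potency for loss of cell viability measured by luminescence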

In the case of `Cn1c(N)c(C(=O)COC(=O)C2CCC(C(C)(C)C)CC2)c(=O)n(C)c1=O` (stereo not drawn), the IC50 [1] is reported as 10.4 µM (active).

For `CC(=O)C1CCC2C3CC(C)C4=CC(=O)CC[C@@]4(C)C3C(O)C[C@@]12C` (stereo partly drawn), the AC50 (Cytochrome P450 3A4) was 31.6 µM (inconclusive).

For `CCc1nn2c(=O)cc(COc3ccc(/C=C4\C(=N)N5N=C(C)SC5=NC4=O)cc3)nc2s1`, the IC50 [2] was 4.66 µM (active).

In the case of `CC[C@]1(O)CC(O[C@@H]2CC(N(C)C)C(O)C(C)O2)c2c(cc3c(c2O)C(=O)c2c(O)cccc2C3=O)C1C(=O)OC` (stereo partly drawn), the AC50 (Cytochrome P450 3A4) is reported as 39.8 µM (inconclusive).

With `COc1cccc(NC(=S)N(CCCN2CCCC2)Cc2ccco2)c1` the IC50 (Prothrombin) was > 50 µM (inconclusive).

With `COc1ccc(C(=O)n2nc(-c3ccccc3)nc2SC)cc1` the IC50 (Prothrombin) was 0.913 µM (active) and the AC50 (Cytochrome P450 2C9) was 0.141 µM (inconclusive).

In the case of `COC(C1CCCCC1)C(C)C(OCc1cccc(Br)c1)C(C)CO` (stereo not drawn), the AC50 (Cytochrome P450 3A4) is reported as 3.16 µM (inconclusive).

For `COCC(=O)n1nc(-c2ccc(C)cc2)nc1NCc1ccc(F)cc1`, the IC50 (Prothrombin) was 0.502 µM (active).

In the case of `Oc1[nH]c2ccccc2c1N=Nc1nc2ccccc2s1`, the IC50 [3] is reported as 66.4 µM (active), the EC50 [4] is reported as 32.3 µM (active) and the IC50 [2] is reported as 3.84 µM (active). The IC50 (Caspase-3) was 27.6 µM (active), the IC50 [5] was > 100 µM (inactive) and the IC50 [6] was 4.3 µM (active). For the same compound, the EC50 [7] was 26.5 µM (active).

For `CC(=O)n1nc(-c2ccc(C)cc2)nc1NCc1ccc(F)cc1`, the IC50 (Prothrombin) was 0.373 µM (active).

For `CC(C)C(=O)n1nc(-c2cccnc2)nc1NCc1cccs1`, the IC50 (Prothrombin) was 0.006 µM (active).
